Source: patent US6160004A, “C-10 carbon-substituted artemisinin-like trioxane compounds having antimalarial, antiproliferative and antitumor activities” (priority 1998, dated 2000)
Where two headings read alike, the source gives them in different places.

How the values were obtained:
OVCAR-8 = assay: cells; type: cell-based; settings: Homo sapiens
MALME-3M = assay: cells; type: cell-based; settings: Homo sapiens, MALME-3M, melanoma, 48 h
SF-539 = assay: cells; type: cell-based; settings: Homo sapiens, SF-539, 48 h, read-out: Log10 LC50 (converted)
HOP-62 = assay: cells; type: cell-based; settings: Homo sapiens, HOP-62, non-small cell lung cancer, 48 h
SK-MEL-2 = assay: cells; type: cell-based; settings: Homo sapiens, SK-MEL-2, 48 h, read-out: Log10 LC50 (converted)
MCF7 = assay: cells; type: cell-based; settings: Homo sapiens; for IC (TGI): read-out: Log10 TGI; for GI50: read-out: Log10 GI50 (converted)
CAKI-1 = assay: NCI 60 cell line panel screening assay (SRB), CAKI-1; type: cell-based; settings: Homo sapiens, CAKI-1, renal cancer, 48 h
OVCAR-3 = assay: cells; type: cell-based; settings: Homo sapiens; for CC50: read-out: Log10 LC50 (converted)
SF-295 = assay: cells; type: cell-based; settings: Homo sapiens
MDA-MB231/ATCC = assay: cells; type: cell-based; settings: Homo sapiens, MDA-MB-231, breast cancer, 48 h
SNB-19 = assay: cells; type: cell-based; settings: Homo sapiens; for CC50: read-out: Log10 LC50 (converted); for IC (TGI): read-out: Log10 TGI
KM12 = assay: cells; type: cell-based; settings: Homo sapiens; for GI50: read-out: Log10 GI50 (converted)
MDA-N = assay: NCI 60 cell line panel screening assay (SRB), MDA-N; type: cell-based; settings: Homo sapiens, breast cancer, 48 h
MCF7/ADR-RES = assay: cells; type: cell-based; settings: Homo sapiens
U251 = assay: cells; type: cell-based; settings: Homo sapiens, read-out: Log10 GI50 (converted)
LOX IMVI = assay: cells; type: cell-based; settings: Homo sapiens, 48 h, read-out: Log10 GI50 (converted)
HS 578T = assay: cells; type: cell-based; settings: Homo sapiens, 48 h, read-out: Log10 GI50 (converted)
NCI-H522 = assay: cells; type: cell-based; settings: Homo sapiens, NCI-H522, 48 h
COLO 205 = assay: NCI 60 cell line panel screening assay (SRB), COLO 205; type: cell-based; settings: Homo sapiens, read-out: Log10 GI50 (converted)
OVCAR-4 = assay: cells; type: cell-based; settings: Homo sapiens
UO-31 = assay: NCI 60 cell line panel screening assay (SRB), UO-31; type: cell-based; settings: Homo sapiens, UO-31, renal cancer, 48 h
MOLT-4 = settings: MOLT-4, FIG. 6
HL-60(TB) = assay: cells; type: cell-based; settings: Homo sapiens, HL-60, 48 h
A549/ATCC = assay: NCI 60 cell line panel screening assay (SRB), A549/ATCC; type: cell-based; settings: Homo sapiens, non-small cell lung cancer, 48 h, read-out: Log10 GI50 (converted)
MDA-MB435 = assay: NCI 60 cell line panel screening assay (SRB), MDA-MB435; type: cell-based; settings: Homo sapiens, MDA-MB-435, 48 h
786-0 = assay: cells; type: cell-based; settings: Homo sapiens; for GI50: read-out: Log10 GI50 (converted)
[1] = test system: chloroquine-sensitive P. falciparum (NF54); assay: In vitro antimalarial activity ([3H]hypoxanthine incorporation); type: cell-based; settings: Plasmodium falciparum; chloroquine-sensitive P. falciparum NF54, in vitro
EKVX = assay: NCI 60 cell line panel screening assay (SRB), EKVX; type: cell-based; settings: Homo sapiens, non-small cell lung cancer, 48 h, read-out: Log10 GI50 (converted)
NCI-H460 = assay: cells; type: cell-based; settings: Homo sapiens, NCI-H460, non-small cell lung cancer, 48 h
ACHN = assay: NCI 60 cell line panel screening assay (SRB), ACHN; type: cell-based; settings: Homo sapiens, renal cancer, 48 h, read-out: Log10 GI50 (converted)
[2] = read-out: Log10 GI50 (converted)
[3] = read-out: Log10 TGI (converted)
[4] = MCF7, 48 h, read-out: Log10 LC50 (converted)
[5] = read-out: Log10 LC50 (converted)

C[C@H]1[C@@H](F)O[C@@H]2O[C@@]3(C)CC[C@H]4[C@H](C)CC[C@@H]1[C@@]24OO3 [Compound VI, 10β-Fluoro-10-deoxoartemisinin]
17 µM: GI50 (SF-295; SF-295, CNS cancer, 48 h, read-out: Log10 GI50 (converted))
2.34 µM: GI50 (MALME-3M; [2])
61.7 µM: IC (TGI) (HOP-62; [3])
0.437 µM: GI50 (KM12; KM12, colon cancer, 48 h)
> 100 µM: CC50 (OVCAR-8; OVCAR-8, 48 h, read-out: Log10 LC50 (converted)) | IC (TGI) (MALME-3M; read-out: Log10 TGI) | CC50 (SF-539) | CC50 (SK-MEL-2) | CC50 (MCF7; [4]) | IC (TGI) (MCF7; MCF7, breast cancer, 48 h) | CC50 (OVCAR-3; OVCAR-3, 48 h) | IC (TGI) (OVCAR-3; OVCAR-3, ovarian cancer, 48 h, read-out: Log10 TGI (converted)) | CC50 (SF-295; SF-295, 48 h, read-out: Log10 LC50 (converted)) | IC (TGI) (SF-295; SF-295, CNS cancer, 48 h, read-out: Log10 TGI) | CC50 (MDA-MB231/ATCC; [5]) | CC50 (SNB-19; SNB-19, 48 h) | IC (TGI) (SNB-19; SNB-19, CNS cancer, 48 h) | CC50 (KM12; KM12, 48 h, read-out: Log10 LC50 (converted)) | CC50 (MDA-N; [5]) | CC50 (MCF7/ADR-RES; [4]) | IC (TGI) (MCF7/ADR-RES; MCF7/ADR-RES, breast cancer, 48 h, read-out: Log10 TGI)
21.4 µM: IC (TGI) (CAKI-1; [3]) | IC (TGI) (MDA-N; [3])
13.2 µM: GI50 (MDA-MB231/ATCC; [2])

CC1CCC2C(C)C(CC(=O)c3ccc(C(=O)CC4OC5OC6(C)CCC7C(C)CCC(C4C)C57OO6)cc3)OC3OC4(C)CCC1C32OO4 (centres unmarked) [Dimer 38]
> 100 µM: CC50 (NCI-H522; [5]) | IC (TGI) (OVCAR-4; OVCAR-4, 48 h, read-out: Log10 TGI) | CC50 (OVCAR-4; OVCAR-4, ovarian cancer, 48 h, read-out: Log10 LC50 (converted)) | CC50 (UO-31; [5]) | CC50 (OVCAR-3; OVCAR-3, ovarian cancer, 48 h) | CC50 (SNB-19; SNB-19, CNS cancer, 48 h) | CC50 (HL-60(TB); [5]) | CC50 (MDA-MB435; [5])
0.0019 µM: IC50 [1]
approximately 10^-4 M: concentration for cytostasis (PG 0) (MOLT-4)
0.024 µM: GI50 (UO-31; [2])
< 0.01 µM: GI50 (U251; U-251, 48 h) | GI50 (LOX IMVI) | GI50 (HS 578T; Hs-578T) | GI50 (NCI-H522; [2]) | GI50 (COLO 205; COLO 205, 48 h) | GI50 (MCF7; MCF7, 48 h) | GI50 (HL-60(TB); [2]) | GI50 (A549/ATCC) | GI50 (KM12; KM12, 48 h) | GI50 (MDA-MB435; [2])
0.0112 µM: GI50 (CAKI-1; [2])
0.0151 µM: GI50 (786-0; 786-0, 48 h)

C[C@@H]1CC[C@H]2[C@@H](C)C(=O)O[C@@H]3O[C@@]4(C)CC[C@@H]1[C@]32OO4 [Artemisinin]
> 100 µM: GI50 (U251; U-251, U251, CNS cancer, 48 h) | GI50 (EKVX) | GI50 (OVCAR-8; OVCAR-8, ovarian cancer, 48 h, read-out: Log10 GI50 (converted)) | GI50 (HS 578T; HS 578T, breast cancer) | GI50 (COLO 205; COLO 205, colon cancer, 48 h) | GI50 (HOP-62; [2]) | GI50 (MCF7; MCF7, breast cancer, 48 h) | IC (TGI) (MCF7; MCF7, breast cancer, 48 h) | GI50 (NCI-H460; [2]) | IC (TGI) (NCI-H460; [3]) | GI50 (SNB-19; SNB-19, CNS cancer, 48 h, read-out: Log10 GI50 (converted)) | IC (TGI) (SNB-19; SNB-19, CNS cancer, 48 h) | GI50 (KM12; KM12, colon cancer, 48 h) | GI50 (786-0; 786-0, renal cancer, 48 h) | IC (TGI) (786-0; 786-0, renal cancer, 48 h, read-out: Log10 TGI) | GI50 (ACHN) | GI50 (MDA-N; [2])
greater than 10^-4 M: concentration for cytostasis (PG 0) (MOLT-4)
